In patent US10240154B2, “RNA products and uses thereof” (IFOM Fondazione Istituto FIRC di Oncologia Molecolare, priority 2012, dated 2019):

Experiments:
[1] = system: DDRNAs with telomeric sequence; assay: LNA transfection, 53BP1 foci after telomere uncapping in T19 fibrosarcoma cells; format: cell-based, human
Protocol: (§1) (for the experiments in FIGS. 35-36). T19 fibrosarcoma cells (van Steensel, Cell 1998) were grown in DMEM supplemented with 10% fetal bovine serum, 1% glutamine and doxycycline (100 ng/ml). For induction, cells were grown without doxycycline for at least 7-8 days. CRE-ER TRF2^flox/flow MEFs (Lazzerini Denchi and de Lange, Nature 2007) were grown in DMEM supplemented with 10% fetal bovine serum and 1% glutamine. For induction, cells were grown in presence of 4-hydroxytamoxifen (600 nM) for 48 hours. For BrdU incorporation, cells were labeled with 10 μg/ml bromodeoxyuridine (BrdU, Sigma) for 16 hours and incorporation was evaluated by immunofluorescence after DNA denaturation.
(§2) (for the experiments in FIGS. 35-36). Cells were fixed with 1:1 methanol/acetone solution for 2 minutes at room temperature, or 4% paraformaldehyde for 10 minutes at room temperature. After blocking, cells were stained with primary antibodies for 1 h at room temperature, washed and incubated with conjugated secondary antibodies for 40 minutes at RT. Nuclei were stained with DAPI (1 μg/ml).
(§3) (for the experiments in FIG. 36). LNA were first boiled at 90° C. for 5 minutes, chilled at 4° C. for 5 minutes and transfected with Lipofectamine RNAiMAX (Invitrogen) at the final concentration of 200 nM.

[2] = system: DDRNAs with telomeric sequence; assay: LNA transfection, BrdU incorporation after telomere uncapping in T19 fibrosarcoma cells; format: cell-based, human; conditions: LNA 200 nM, 3 days following LNA transfection
Protocol: as §1, §3

RNA polymerase II [3] = target: T1, RNA polymerase II (Homo sapiens, UniProt P24928); assay: Spontaneous 53BP1 foci reformation after RNase A treatment in irradiated HeLa cells; format: cell-based; conditions: irradiated (2Gy) HeLa, RNase A then RNaseOUT, with α-amanitin for 10 or 45 minutes
T1 construct: endogenous in cells; host or cells: HeLa
Protocol: Cells were plated on poly-D-lysinated coverslips and irradiated with 2Gy of IR. 1 h after HeLa cells were permeabilized with 2% Tween 20 in PBS for 10 minutes at RT while I-Sce I-transfected NIH2/4 cells were permeabilized in 0.5% Tween 20 in PBS for 10 minutes at RT. RNase A treatment was carried out in 1 ml of 1 mg/ml Ribonuclease A from bovine pancreas (Sigma-Aldrich cat n: R5503) in PBS for 25 minutes at room temperature. […] […] Then, RNase A-treated cells were incubated with total, small or gel extracted RNA, or the same amount of tRNA, for additional 15 minutes at room temperature. […] Cell were then fixed with 4% paraformaldehyde or methanol:acetone 1:1.

RNA polymerase II [4] = target: T2, RNA polymerase II (Mus musculus, UniProt P08775); assay: 53BP1 focus reformation at the I-Sce I-induced DSB in RNase A-treated NIH2/4 cells; format: cell-based; conditions: data not shown
T2 construct: endogenous in cells; host or cells: NIH2/4 mouse cells
Protocol: (§4) Cells were plated on poly-D-lysinated coverslips and irradiated with 2Gy of IR. 1 h after HeLa cells were permeabilized with 2% Tween 20 in PBS for 10 minutes at RT while I-Sce I-transfected NIH2/4 cells were permeabilized in 0.5% Tween 20 in PBS for 10 minutes at RT. RNase A treatment was carried out in 1 ml of 1 mg/ml Ribonuclease A from bovine pancreas (Sigma-Aldrich cat n: R5503) in PBS for 25 minutes at room temperature. After RNase A digestion, the samples were washed with PBS, treated with 80 units of RNase inhibitor (RNaseOUT Invitrogen 40 units/μl) and 2 μg/ml of α-amanitin (SIGMA) for 15 minutes in a total volume of 70 μl. […] Then, RNase A-treated cells were incubated with total, small or gel extracted RNA, or the same amount of tRNA, for additional 15 minutes at room temperature. […] Cell were then fixed with 4% paraformaldehyde or methanol:acetone 1:1.

Dicer = conditions: RNA with aptamer-binding site for paromomycin; according to the amount of ligand; cited from earlier work
HEK293 cells = assay: G2/M checkpoint assay in HEK293 cells after shRNA knockdown; format: cell-based, human; conditions: HEK293, 12, 24 and 36 hours post irradiation (5Gy)
Protocol: HEK 293 calcium phosphate transfected cells were irradiated with 5Gy and allowed to respond to IR-induced DNA damage in a cell culture incubator for 12, 24 or 36 hours. Then, at these three time points post irradiation, together with not irradiated cells, 1×10^6 cells were collected for Fluorescence Activated Cell Sorting (FACS) analysis, fixed in 75% ethanol in PBS, 30 minutes on ice. Afterwards, cells were treated 12 hours with 40 μg/ml of RNase A and incubated at least 1 h with propidium iodide (PI). FACS profiles were obtained by the analysis of at least 5×10^5 cells. In the complementation experiments HEK 293 were transfected using Lipofectamine RNAi Max (Invitrogen) and 48 hours later irradiated with 5Gy. Cells were then treated as explained above.

NIH2/4 cells [5] = assay: Short RNA sequencing of NIH2/4 cells after Dicer or Drosha knockdown by shRNA; format: cell-based, mouse; conditions: for miRNA expression (spike-normalized reads mapping to miRBase): NIH2/4, cut and uncut, compared to wildtype; for fraction of 22-23 nt vs total short RNAs at the locus: NIH2/4, uncut and cut conditions
Protocol: Nuclei were isolated the day after the adenoviral infection.
Nuclear RNA shorter than 200 nt was purified using mirVana™ microRNA Isolation Kit. RNA quality was checked on a small RNA chip (Agilent) before library preparation (Supplementary FIG. 23a). For Illumina hi Seq Version3 sequencing, spike RNA was added to each RNA sample in the RNA:spike ratio of 10,000:1 before library preparation and libraries for Illumina GA IIX were prepared without spike. An improved short RNA library preparation protocol was used to prepare libraries^68. In brief, adenylated 3′ adapters were ligated to 3′ ends of 3′-OH short RNAs using a truncated RNA ligase enzyme followed by 5′ adapter ligation to 5′-monophosphate ends using RNA ligase enzyme, ensuring specific ligation of undegraded short RNAs. cDNA was prepared using a primer specific to the 3′ adapter in the presence of Dimer eliminator and amplified for 12-15 PCR cycles using a special forward primer targeting the 5′ adapter containing additional sequence for sequencing and a reverse primer targeting the 3′ adapter. The amplified cDNA library was run on a 6% polyacrylamide gel and the 100 bp band containing cDNAs up to 33 nt was extracted using standard extraction protocols. Libraries were sequenced after quality check on a DNA high sensitivity chip (Agilent). Multiplexed barcode sequencing was performed on Illumina GA-IIX (35 bp Single end reads) and Illumina Hi seq version3 (51 bp single end reads). Sequences of all the DDRNAs identified in this study will be available for free downloading by the time of publication at short read archive.
Statistical significance of downregulation of normalized miRNAs in Dicer and Drosha knockdown samples were calculated using the Wilcoxon signed-rank test.
The differences in the fraction of 22-23 nt vs total short RNAs at the locus between the wildtype, Dicer knockdown, and Drosha knockdown before and after cut was calculated by fitting a negative binomial model to the sRNA count data and performing a likelihood ratio test, keeping the fraction of 22-23 nt vs total short RNAs at the locus fixed across conditions under the null hypothesis and allowing it to vary between conditions under the alternative hypothesis.

HeLa cells [6] = assay: DDR foci formation in the RNase A in vitro cell system with translation inhibitor; format: cell-based, human; conditions: data not shown
Protocol: as §4

HeLa cells [7] = assay: RNase A treatment of irradiated permeabilized HeLa cells, DDR foci; format: cell-based, human; conditions: irradiated HeLa cells (2Gy), RNase A 1 mg/ml
Protocol: as §4

NIH2/4 cells [8] = assay: RNase A treatment of I-Sce I cut NIH2/4 cells, foci colocalizing with Cherry-Lac; format: cell-based, mouse
Protocol: as §4

TRF2^flox/flox MEFs = assay: RNase A treatment of TRF2 knockout MEFs with uncapped telomeres; format: cell-based, mouse; conditions: RNase A vs BSA
Protocol: as §1, §2
(for the experiments in FIG. 35). CRE-ER TRF2^flox/flox MEFs (Lazzerini Denchi and de Lange, Nature 2007) were induced to generate TRF2 knockout and telomere uncapping. 48 hours later cells were permeabilized with 0.6% Tween 20 in PBS for 15 min at room temperature.

[9] = induced (Flag+) T19 cells, LNA 200 nM transfected at day 13 from induction, compared to control LNA
[10] = uninduced (Flag−) T19 cells, LNA 200 nM
[11] = Flag+ T19 cells, BrdU 16 hours, compared to Cntrl LNA

LNA 5: LNA, SEQ ID NO: 61, CCCTAACCCTAACCCTAACCC; antisense telomeric sequence; control in FIG. 34
53BP1 foci-positive cells [1, 9]: decrease in DDR-positive cells | 53BP1 foci-positive cells [1, 10]: no difference was observed | percentage of BrdU-positive cells [2, 11]: significant increase | percentage of BrdU-positive cells ([2]; Flag− T19 cells): no difference is observed

α-amanitin
53BP1-foci reformation (RNA polymerase II [3]): prevents 53BP1-foci reformation | 53BP1 focus reformation at the I-Sce I-induced DSB (RNA polymerase II [4]): prevents 53BP1 focus reformation

LNA 3: LNA, SEQ ID NO: 59, ACTGATAGGGAGTGGTAAACT; unrelated control in FIG. 36 (LNA-modified oligonucleotide, LNA positions not given here)
53BP1 foci-positive cells [1, 9]: no effect

NC[C@@H]1O[C@H](O[C@H]2[C@@H](O)[C@H](O[C@@H]3[C@@H](O)[C@H](N)C[C@H](N)[C@H]3O[C@H]3O[C@H](CO)[C@@H](O)[C@H](O)[C@H]3N)O[C@@H]2CO)[C@H](N)[C@@H](O)[C@@H]1O [paromomycin]
Dicer activity (Dicer): decrease of Dicer activity

shRNA against p53: pRETROSUPER shp53, short hairpin SEQ ID NO:2 (guide AGTAGATTACCACTGGAGTCTT)
G2/M checkpoint (FACS cell-cycle profile) (HEK293 cells): did not arrest upon DNA damage

LNA 6: LNA, SEQ ID NO: 62, GGGTTAGGGTTAGGGTTAGGG; sense telomeric sequence (LNA)
53BP1 foci-positive cells [1, 9]: decrease in DDR-positive cells | 53BP1 foci-positive cells [1, 10]: no difference was observed | percentage of BrdU-positive cells [2, 11]: significant increase | percentage of BrdU-positive cells ([2]; Flag− T19 cells): no difference is observed

shDicer: shRNA for mouse Dicer, SEQ ID NO:3, lentiviral pLKO.1 (CCGGGCCTCACTTGACCTGAAGTATCTCGAGATACTTCAGGTCAAGTGAGGCTTTTT)
miRNA expression (spike-normalized reads mapping to miRBase) (NIH2/4 cells [5]): significantly lower expressed | fraction of 22-23 nt vs total short RNAs at the locus (NIH2/4 cells [5]): decreases

C[C@@H]1C[C@@H]([C@H](O)CC2CC(=O)NC(=O)C2)C(=O)[C@@H](C)C1 [cyclohexamide]
DDR foci formation (HeLa cells [6]): no impact on DDR foci formation

shDrosha: shRNA for mouse Drosha, SEQ ID NO:4, lentiviral pLKO.1 (CCGGCCTGGAATATGTCCACACTTTCTCGAGAAAGTGTGGACATATTCCAGGTTTTTG)
miRNA expression (spike-normalized reads mapping to miRBase) (NIH2/4 cells [5]): significantly lower expressed | fraction of 22-23 nt vs total short RNAs at the locus (NIH2/4 cells [5]): decreases

B1: RNase A: Ribonuclease A from bovine pancreas (Sigma-Aldrich R5503), broad-specificity RNA nuclease (protein, UniProt P61823 27-150, looked up)
Ribonuclease pancreatic: KETAAAKFERQHMDSSTSAASSSNYCNQMMKSRNLTKDRCKPVNTFVHESLADVQAVCSQKNVACKNGQTNCYQSYSTMSITDCRETGSSKYPNCAYKTTQANKHIIVACEGNPYVPVHFDASV
53BP1, pATM, pS/TQ and MDC1 foci (HeLa cells [7]): strongly reduced | γH2AX accumulation (HeLa cells [7]): only slightly affected | 53BP1, pATM and MRE11 foci colocalizing with the Cherry-Lac focus (NIH2/4 cells [8]): lost | 53BP1 foci (TRF2^flox/flox MEFs): disassemble | γH2AX foci (TRF2^flox/flox MEFs): stable
